Laboratory results published in patent publication US10837909B2, “Super-resolution fluorescent imaging probe” (The University of Tokyo, priority 2015, dated 2020).

Tests used:
[1] = Measurement of the fluorescence quantum yield; assay type: physicochemical; settings: 1 μM probe, 1% DMSO aqueous solution, pH 7.4 (200 mM sodium phosphate buffer)
Protocol: Fluorescence quantum yield of the probe compounds according to the present invention was measured. The solution conditions were 1 μM probe compound, 1% DMSO aqueous solution, and pH 7.4 (200 mM sodium phosphate buffer).

[2] = Laser flash photolysis: nucleophilic addition reaction rate constant and time constant with glutathione; assay type: physicochemical; settings: pH 7.4, 10 mM sodium phosphate buffer, 295 K
Protocol: Change over time of transient absorption of the probe compounds of the present invention at various glutathione concentrations was measured using laser flash photolysis, and a nucleophilic addition reaction rate constant k and a nucleophilic addition reaction rime constant T in the nucleophilic addition-dissociation equilibrium reaction between glutathione and the probe compounds of the present invention were calculated. The solution conditions were […] aqueous solution and pH 7.4 (10 mM sodium phosphate buffer). A measurement condition was 295 K and a light source was a 10 mJ/pulse XeCl excimer laser ([…]).

SMILES	Fluorescence quantum yield [1]	k (nucleophilic addition reaction rate constant) ([2]; glutathione 0.1 mM) [s⁻¹]	τ (nucleophilic addition reaction time constant) ([2]; glutathione 0.1 mM) [ms]	k (nucleophilic addition reaction rate constant) ([2]; glutathione 0.5 mM) [s⁻¹]	τ (nucleophilic addition reaction time constant) ([2]; glutathione 0.5 mM) [ms]	k (nucleophilic addition reaction rate constant) ([2]; glutathione 1 mM) [s⁻¹]	τ (nucleophilic addition reaction time constant) ([2]; glutathione 1 mM) [ms]	k (nucleophilic addition reaction rate constant) ([2]; glutathione 5 mM) [s⁻¹]	τ (nucleophilic addition reaction time constant) ([2]; glutathione 5 mM) [ms]	k (nucleophilic addition reaction rate constant) ([2]; glutathione 10 mM) [s⁻¹]	τ (nucleophilic addition reaction time constant) ([2]; glutathione 10 mM) [ms]
CN(C)c1ccc2c(c1)[Si](C)(C)C1=C/C(=[N+](\C)CCCC(=O)NCc3ccc(COc4nc(N)nc5[nH]cnc45)cc3)C=CC1=C2 [Compound 14]	0.27	–	–	–	–	–	–	–	–	–	–
CN(C)c1ccc2c(c1)[Si](C)(C)C1=C/C(=[N+](\C)CCCC(=O)NCCOCCOCCCCCCCl)C=CC1=C2 [Compound 16]	0.49	–	–	–	–	–	–	–	–	–	–
CC1(C)C2=CC(=N)C=CC2=Cc2ccc(N)cc21 [Compound 28]	0.70	21.1	47.5	195	5.12	371	2.69	2170	0.46	5260	0.19
CN(C)c1ccc2c(c1)[Si](C)(C)C1=C/C(=[N+](\C)CCCC(=O)O)C=CC1=C2 [Compound 12]	0.46	7.49	134	42.8	23.4	75.6	13.2	444	2.25	1080	0.93
CN(C)c1ccc2c(c1)[Si](C)(C)C1=CC(=[N+](C)C)C=CC1=C2 [Compound 5]	0.39	14.3	69.9	95.8	10.4	176.2	5.67	976	1.02	2290	0.436
CN(C)c1ccc2c(c1)[Si](C)(C)C1=C/C(=[N+](\C)CCCC(=O)ON3C(=O)CCC3=O)C=CC1=C2 [Compound 17]	0.46	–	–	–	–	–	–	–	–	–	–
C[Si]1(C)C2=CC(=N)C=CC2=C(c2ccccc2)c2ccc(N)cc21 [Compound 2]	–	–	–	1.21	823	2.05	487	11.0	90.7	25.0	40.1
CC1(C)C2=C/C(=N/CCCC(=O)O)C=CC2=Cc2ccc(N)cc21 [Compound 32]	0.69	15.8	63.1	61.7	16.2	106	9.45	592	1.69	1410	0.71
